Values of other authors as cited in US6107296A, “Neuroprotective use of triazolo-pyridazine derivatives” (Merck Sharp & Dohme, Ltd., priority 1997, dated 2000).

How the values were obtained:
[1] = test system: selectively vulnerable neuronal populations in the gerbil forebrain; conditions: gerbil forebrain ischemia model
[2] = test system: GABAA receptor subtypes containing the α1 and α3 or α5 subunits
[3] = test system: GABAA receptor subtypes containing the α1 and α3 or α5 subunits; conditions: partial agonist at each of the α1, α3 or α5 containing receptors

In the case of `C[C@@H]1CN(C(=O)c2cc3c(C(=O)OC(C)(C)C)ncn3c3ccc(Cl)cc23)C[C@H](C)N1` [PNU-101017], the neuronal survival [1] is given as “dose-related increase in neuronal survival”, the “affinity for GABAA receptor subtypes” value [2] is given as “high affinity” and the “intrinsic activity relative to the full agonist diazepam” value [3] is given as “approximately 50%”.
